± gives the uncertainty stated by the source.
Tested on: HepG2 (L1.3 5'UTR promoter firefly luciferase reporter)
Test: L1 promoter activity (FLuc/RLuc) relative to DMSO vehicle control (% of control); higher = stronger L1 promoter activation
Description: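 HepG2 cells in 96-well plates were cotransfected with pGL4.11-L1.3 5'UTR (firefly luciferase driven by the human L1.3 5'UTR promoter) and pGL4.74 (HSV-TK Renilla luciferase internal control), then treated with compound for 6 or 24 h. FLuc/RLuc ratio was normalised to the DMSO vehicle control (% of control); concentrations where RLuc fell below 50% of control were excluded (N.D.). Mean of at least two independent experiments in duplicate or quadruplicate.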

[1] = concentration (uM unless unit written): 1, treatment time: 6 h
[2] = concentration (uM unless unit written): 1, treatment time: 24 h
[3] = concentration (uM unless unit written): 500, treatment time: 6 h
[4] = concentration (uM unless unit written): 500, treatment time: 24 h
[5] = concentration (uM unless unit written): 1000, treatment time: 6 h
[6] = concentration (uM unless unit written): 10, treatment time: 6 h
[7] = concentration (uM unless unit written): 10, treatment time: 24 h
[8] = concentration (uM unless unit written): 50, treatment time: 6 h
[9] = concentration (uM unless unit written): 50, treatment time: 24 h
[10] = concentration (uM unless unit written): 100, treatment time: 6 h

SMILES: CC[C@H](C)C(=O)O[C@H]1CCC=C2C=C[C@H](C)[C@H](CC[C@@H]3C[C@@H](O)CC(=O)O3)[C@H]21 [Mevastatin]
- L1 promoter activity [1]: 114 ± 22
- L1 promoter activity [2]: 118 ± 31
- L1 promoter activity (concentration (uM unless unit written): 3, treatment time: 6 h): 101 ± 24
- L1 promoter activity (concentration (uM unless unit written): 3, treatment time: 24 h): 105 ± 12
- L1 promoter activity (concentration (uM unless unit written): 6, treatment time: 6 h): 123 ± 43
- L1 promoter activity (concentration (uM unless unit written): 6, treatment time: 24 h): 103 ± 18

SMILES: ClC(Cl)(Cl)Cl [Carbon tetrachloride]
- L1 promoter activity [3]: 99.7 ± 5.5
- L1 promoter activity [4]: 91.3 ± 3.6
- L1 promoter activity [5]: 111 ± 5.9
- L1 promoter activity (concentration (uM unless unit written): 1000, treatment time: 24 h): 90.7 ± 12
- L1 promoter activity (concentration (uM unless unit written): 2000, treatment time: 6 h): 108 ± 8.1
- L1 promoter activity (concentration (uM unless unit written): 2000, treatment time: 24 h): 98.4 ± 8.2

SMILES: CCCC(CCC)C(=O)O [Valproic acid]
- L1 promoter activity (concentration (uM unless unit written): 2500, treatment time: 6 h): 90.2 ± 25
- L1 promoter activity (concentration (uM unless unit written): 2500, treatment time: 24 h): 18.5 ± 1.6

SMILES: CC[C@]1(O)C[C@@H]2CN(CCc3c([nH]c4ccccc34)[C@@](C(=O)OC)(c3cc4c(cc3OC)N(C)[C@H]3[C@@](O)(C(=O)OC)[C@H](OC(C)=O)[C@]5(CC)C=CCN6CC[C@]43[C@@H]65)C2)C1 [Vinblastine]
- L1 promoter activity (concentration (uM unless unit written): 0.1, treatment time: 6 h): 92.8 ± 15
- L1 promoter activity (concentration (uM unless unit written): 0.1, treatment time: 24 h): 181 ± 31
- L1 promoter activity [1]: 92.1 ± 23
- L1 promoter activity [2]: 161 ± 30
- L1 promoter activity (concentration (uM unless unit written): 5, treatment time: 6 h): 94 ± 12
- L1 promoter activity (concentration (uM unless unit written): 5, treatment time: 24 h): 207 ± 24

SMILES: O=C1NC(=S)NC(=O)C1C(=O)Nc1ccccc1 [Merbarone]
- L1 promoter activity [1]: 112 ± 12
- L1 promoter activity [2]: 113 ± 13
- L1 promoter activity [6]: 140 ± 17
- L1 promoter activity [7]: 147 ± 17
- L1 promoter activity [8]: 171 ± 27
- L1 promoter activity [9]: 219 ± 30
- L1 promoter activity [10]: 182 ± 16
- L1 promoter activity (concentration (uM unless unit written): 100, treatment time: 24 h): 198 ± 32

SMILES: O=C(O)Cc1ccccc1Nc1c(Cl)cccc1Cl [Diclofenac]
- L1 promoter activity (concentration (uM unless unit written): 125, treatment time: 6 h): 109 ± 7.5
- L1 promoter activity (concentration (uM unless unit written): 125, treatment time: 24 h): 68.5 ± 3.6
- L1 promoter activity (concentration (uM unless unit written): 250, treatment time: 6 h): 107 ± 1.6
- L1 promoter activity (concentration (uM unless unit written): 250, treatment time: 24 h): 59.6 ± 5.5

SMILES: C=C(C)[C@H]1Cc2c(ccc3c2O[C@@H]2COc4cc(OC)c(OC)cc4[C@@H]2C3=O)O1 [Rotenone]
- L1 promoter activity (concentration (uM unless unit written): 0.075, treatment time: 6 h): 113 ± 28
- L1 promoter activity (concentration (uM unless unit written): 0.075, treatment time: 24 h): 90.8 ± 3.4
- L1 promoter activity [6]: 97.8 ± 8.2
- L1 promoter activity [8]: 93.6 ± 11

SMILES: Clc1ccc(C(c2ccccc2Cl)C(Cl)Cl)cc1 (stereo unspecified) [o.p'-Dichlorodiphenyldichloroethane]
- L1 promoter activity [8]: 97.3 ± 5
- L1 promoter activity [9]: 108 ± 5.8
- L1 promoter activity [10]: 77.5 ± 11

SMILES: CC[C@H]1/C=C/C=C/C[C@@H](C)[C@H](O)[C@@](C)(O)C(=O)[C@@H](C)[C@H](O)[C@@H](C)C(=O)[C@@H](C)[C@H](O)[C@@H](C)/C=C/C(=O)O[C@@H]2[C@H](C)[C@H](CC1)O[C@]1(CC[C@H](C)[C@H](C[C@@H](C)O)O1)[C@H]2C [Oligomycin]
- L1 promoter activity (concentration (uM unless unit written): 0.75, treatment time: 6 h): 89.6 ± 5.8
- L1 promoter activity (concentration (uM unless unit written): 0.75, treatment time: 24 h): 82.1 ± 19
- L1 promoter activity (concentration (uM unless unit written): 1.5, treatment time: 6 h): 82.5 ± 15
- L1 promoter activity (concentration (uM unless unit written): 1.5, treatment time: 24 h): 77.2 ± 1.9

SMILES: CN1CC=C(c2ccccc2)CC1 [1-Methyl-4-phenyl-1,2,3,6-tetrahydropyridine]
- L1 promoter activity [3]: 115 ± 11
- L1 promoter activity [4]: 121 ± 19

SMILES: Cc1cccc(Nc2ccccc2C(=O)O)c1C [Mefenamic acid]
- L1 promoter activity [8]: 128 ± 8.3
- L1 promoter activity [9]: 91 ± 5.5
- L1 promoter activity [3]: 113 ± 19
- L1 promoter activity [5]: 93.8 ± 13

SMILES: COc1cc([C@@H]2c3cc4c(cc3[C@@H](O[C@@H]3O[C@@H]5CO[C@@H](C)O[C@H]5[C@H](O)[C@H]3O)[C@H]3COC(=O)[C@H]23)OCO4)cc(OC)c1O [Etoposide]
- L1 promoter activity [6]: 90.4 ± 7.5
- L1 promoter activity [7]: 95.7 ± 4.1
- L1 promoter activity (concentration (uM unless unit written): 25, treatment time: 6 h): 100 ± 30
- L1 promoter activity (concentration (uM unless unit written): 25, treatment time: 24 h): 108 ± 16
- L1 promoter activity [8]: 98.6 ± 21
- L1 promoter activity [9]: 138 ± 70

SMILES: CC(=O)N1CCN(c2ccc(OCC3COC(Cn4ccnc4)(c4ccc(Cl)cc4Cl)O3)cc2)CC1 (stereo unspecified) [Ketoconazol]
- L1 promoter activity [6]: 90.8 ± 12
- L1 promoter activity [7]: 82.2 ± 16
- L1 promoter activity (concentration (uM unless unit written): 20, treatment time: 6 h): 83.5 ± 11
- L1 promoter activity (concentration (uM unless unit written): 20, treatment time: 24 h): 57.5 ± 15
- L1 promoter activity (concentration (uM unless unit written): 40, treatment time: 6 h): 71.4 ± 9.3
- L1 promoter activity (concentration (uM unless unit written): 40, treatment time: 24 h): 37.2 ± 4.2
